The values below come from ChEMBL document CHEMBL1201862, “PubChem BioAssay data set” (2004).

Some test systems named below: A498; HL-60; HT-29; K562; KM12; LOX IMVI; M14; MCF7; NCI-H226; SF-295; SK-MEL-5; SN12C; SNB-75; SW-620; TK-10; U-251; UACC-62; SNB-19; HOP-92.
Assay in all cases: inhibition of tumour cell growth, NCI panel, 48 h

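Following 48 hours of exposure in 96-well plates, responses at five concentrations were used to interpolate endpoints linearly. The concentration for 50% growth inhibition is given as GI50.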 Active and inactive are the calls of the source. Rule as the data show it: active = GI50 up to about 1.1 µM and inactive = higher.

As for `O=[N+]([O-])c1cc(Cl)c(Cl)cc1[N+](=O)[O-]`, the GI50 with A498 is 18.5 µM (inactive); in the experiment on HL-60 it was 1.9 µM (inactive); in the experiment with HT-29 it was 4.16 µM (inactive); with K562, 2.43 µM (inactive); with KM12, 3.27 µM (inactive); with LOX IMVI, 2.37 µM (inactive). For the same compound, the GI50 in the experiment with M14 was 3.51 µM (inactive); in the experiment on MCF7 it was 2.06 µM (inactive); in the experiment with NCI-H226, 3.89 µM (inactive); in the experiment on SF-295, 3.08 µM (inactive); with SK-MEL-5, 14.6 µM (inactive); with SN12C, 1.91 µM (inactive). In addition, the GI50 in the experiment with SNB-75 was 3.6 µM (inactive); with SW-620, 2.91 µM (inactive); in the experiment on TK-10 it was 3.55 µM (inactive); in the experiment with U-251, 2 µM (inactive); in the experiment on UACC-62, 2.23 µM (inactive).
In the case of `CNc1cc(Cl)ccc1C(=O)N1CCC[C@H]1CO`, the GI50 in the experiment with A498 is > 100 µM (inactive); in the experiment on HL-60, 81.7 µM (inactive); in the experiment on HT-29 it was > 100 µM (inactive); in the experiment with KM12, > 100 µM (inactive); with LOX IMVI it was > 100 µM (inactive); in the experiment on M14, > 100 µM (inactive). Besides, the GI50 in the experiment with MCF7 is > 100 µM (inactive); in the experiment with NCI-H226, 78.2 µM (inactive); in the experiment with SF-295, > 100 µM (inactive); in the experiment on SK-MEL-5, 74.1 µM (inactive); with SN12C, > 100 µM (inactive); with SNB-19, > 100 µM (inactive). The GI50 with SNB-75 is 53.5 µM (inactive); in the experiment with SW-620, > 100 µM (inactive); in the experiment on TK-10 it was > 100 µM (inactive); in the experiment on U-251, > 100 µM (inactive); in the experiment on UACC-62, > 100 µM (inactive).
Turning to `O=C(/C=C/c1ccc2c(c1)OCO2)CC(=O)/C=C/c1ccc2c(c1)OCO2`, the GI50 is 41.7 µM (inactive) with HL-60; > 100 µM (inactive) with HT-29; 80.2 µM (inactive) in the experiment with K562; 3.56 µM (inactive) in the experiment with KM12; 12.1 µM (inactive) in the experiment with LOX IMVI; > 100 µM (inactive) in the experiment with M14. Moreover, the GI50 is 77.4 µM (inactive) with MCF7; > 100 µM (inactive) with NCI-H226; > 100 µM (inactive) in the experiment on SF-295; > 100 µM (inactive) in the experiment on SK-MEL-5; > 100 µM (inactive) in the experiment with SN12C; 92.7 µM (inactive) with SNB-19. Also, the GI50 is > 100 µM (inactive) in the experiment with SNB-75; > 100 µM (inactive) in the experiment with SW-620; > 100 µM (inactive) with TK-10; 91.4 µM (inactive) in the experiment on U-251; > 100 µM (inactive) in the experiment on UACC-62.
Regarding `COc1ccc2[nH]c3c(C)c4cnccc4c(C)c3c2c1`, the GI50 in the experiment with HL-60 is 2.28 µM (inactive); with HOP-92, 5.4 µM (inactive); in the experiment on HT-29, 1.11 µM (active); in the experiment on K562 it was 2.4 µM (inactive); with KM12, 1.31 µM (inactive); with M14, 1.26 µM (inactive). Moreover, the GI50 with MCF7 was 1.52 µM (inactive); in the experiment on NCI-H226, 1.4 µM (inactive); in the experiment on SF-295 it was 3.3 µM (inactive); in the experiment with SK-MEL-5, > 10 µM (inactive); with SN12C, 2.24 µM (inactive); in the experiment on SNB-19, > 10 µM (inactive). For the same compound, the GI50 is 2.25 µM (inactive) in the experiment on SNB-75; 0.964 µM (active) with SW-620; 5.69 µM (inactive) in the experiment with TK-10; 1.72 µM (inactive) with U-251; > 10 µM (inactive) with UACC-62.
As for `CCN(CC)Cc1ccc(C(=S)Nc2ccc(Cl)cc2)s1`, the GI50 in the experiment with A498 is 12 µM (inactive); in the experiment on HL-60, 2.75 µM (inactive); with HT-29, 2.91 µM (inactive); in the experiment on K562, 1.87 µM (inactive); with KM12, 11.9 µM (inactive); in the experiment with LOX IMVI, 4.82 µM (inactive). The GI50 in the experiment with M14 was 3.64 µM (inactive); with MCF7, 11 µM (inactive); with SF-295, 9.91 µM (inactive); with SK-MEL-5, 4.24 µM (inactive); in the experiment on SNB-19 it was 16.5 µM (inactive); with SW-620 it was 12.2 µM (inactive). Besides, the GI50 with U-251 was 12 µM (inactive); in the experiment with UACC-62 it was 9.57 µM (inactive).
On to `O=c1[nH]/c(=C/c2cccs2)c(=O)[nH]/c1=C/c1ccc(OCc2ccccc2)cn1`, for which the GI50 with A498 is 0.0374 µM (active); in the experiment on HL-60, < 0.0182 µM (active); in the experiment on HT-29, 0.124 µM (active); with K562, < 0.0156 µM (active); in the experiment with KM12, 0.59 µM (active); in the experiment on LOX IMVI, 57.1 µM (inactive). Further, the GI50 in the experiment on M14 was 0.0309 µM (active); in the experiment on MCF7, 0.0422 µM (active); with NCI-H226 it was 0.312 µM (active); in the experiment with SF-295, 0.0206 µM (active); in the experiment with SK-MEL-5, 0.0515 µM (active); in the experiment with SN12C it was 0.064 µM (active). Besides, the GI50 is 0.0661 µM (active) in the experiment with SNB-19; 0.027 µM (active) with SNB-75; 0.0361 µM (active) in the experiment on SW-620; 1.74 µM (inactive) in the experiment on TK-10; 0.0631 µM (active) with U-251; 0.0638 µM (active) in the experiment on UACC-62.
In the case of `CNC(=O)CCNC(=O)CCC(=O)N(C)C`, the GI50 in the experiment on A498, with HT-29, in the experiment with K562, in the experiment with KM12, in the experiment with M14 and in the experiment with MCF7 was > 100 µM (inactive) in each case. The GI50 in the experiment with SF-295, with SK-MEL-5, in the experiment with SN12C, in the experiment with SNB-19, in the experiment on SW-620 and in the experiment with TK-10 was > 100 µM (inactive) in each case. Also, the GI50 in the experiment with U-251 and in the experiment with UACC-62 was > 100 µM (inactive) in each case.
With `CCOC(=O)CC1c2ccc(O)cc2OC(=O)C1c1ccc(N)cc1` (stereo unspecified), the GI50 in the experiment with A498, in the experiment with HT-29, in the experiment with K562, in the experiment with KM12, in the experiment with LOX IMVI and in the experiment with M14 was > 100 µM (inactive) in each case. Besides, the GI50 with MCF7, in the experiment on NCI-H226, in the experiment on SF-295, in the experiment on SK-MEL-5, with SN12C and in the experiment with SNB-19 was > 100 µM (inactive) throughout. The GI50 is 84.9 µM (inactive) in the experiment with SNB-75; > 100 µM (inactive) in the experiment on SW-620; > 100 µM (inactive) in the experiment on TK-10; > 100 µM (inactive) with U-251; > 100 µM (inactive) with UACC-62.
Take `COc1cc(C(=O)Nc2cc(C(N)=O)cc(OC)c2OC)cc(NC(=O)/C=C/c2ccccc2)c1OC`: the GI50 is 96.4 µM (inactive) in the experiment on HL-60; 5.11 µM (inactive) in the experiment with HOP-92; > 100 µM (inactive) in the experiment on HT-29; > 100 µM (inactive) with K562; > 100 µM (inactive) in the experiment on KM12; > 100 µM (inactive) in the experiment with MCF7. Besides, the GI50 was 2.67 µM (inactive) with SF-295; 18.6 µM (inactive) in the experiment with SN12C; > 100 µM (inactive) in the experiment on SNB-19; 1.71 µM (inactive) with SNB-75; > 100 µM (inactive) with SW-620; > 100 µM (inactive) with TK-10. In addition, in the experiment with UACC-62, the GI50 is 15.2 µM (inactive).
In the case of `CC1=[N+]([O-])C(C)(C)N(N=O)C1(C)C`, the GI50 in the experiment on HL-60, with HOP-92, with HT-29, in the experiment on K562, in the experiment with KM12 and with M14 was > 10 µM (inactive) each time. For the same compound, the GI50 in the experiment on MCF7, in the experiment on NCI-H226, with SF-295, in the experiment with SN12C, with SNB-19 and in the experiment on SW-620 was > 10 µM (inactive) each time. The GI50 with TK-10 and in the experiment on U-251 was > 10 µM (inactive) in each case.
For `O=Nc1c(-c2c(O)[nH]c3ccc(I)cc23)[nH]c2ccccc12`, the GI50 in the experiment on HL-60 is 2.61 µM (inactive); in the experiment on HOP-92, > 20.2 µM (inactive); with HT-29, 3.48 µM (inactive); with KM12, 0.282 µM (active); in the experiment with LOX IMVI it was 2.45 µM (inactive); in the experiment on M14, > 21.6 µM (inactive). Moreover, the GI50 in the experiment on MCF7 is 2.41 µM (inactive); with SF-295, 6.28 µM (inactive); in the experiment with SK-MEL-5 it was 4.12 µM (inactive); in the experiment on SN12C, 3.72 µM (inactive); in the experiment on SNB-19 it was > 29.7 µM (inactive); with SNB-75, 5.33 µM (inactive). Further, the figures for the GI50 in the experiment on TK-10, with U-251 and with UACC-62 were 5.38 µM (inactive), 5.62 µM (inactive) and 2.69 µM (inactive), respectively.
On to `CCc1nc(N)nc(N)c1-c1ccc(Cl)c([N+]#N)c1`, for which the GI50 was 40.8 µM (inactive) in the experiment on HL-60; > 100 µM (inactive) with HOP-92; 33.3 µM (inactive) in the experiment on HT-29; 6.32 µM (inactive) with K562; 38.1 µM (inactive) in the experiment on KM12; 46.5 µM (inactive) with LOX IMVI. For the same compound, the GI50 in the experiment on M14 was 65.5 µM (inactive); in the experiment on MCF7 it was > 100 µM (inactive); with NCI-H226, > 100 µM (inactive); in the experiment on SF-295, 39 µM (inactive); in the experiment with SK-MEL-5 it was 46.2 µM (inactive); with SN12C, 50.6 µM (inactive). Moreover, the GI50 in the experiment with SNB-19 is > 100 µM (inactive); in the experiment on SNB-75, > 100 µM (inactive); in the experiment on SW-620, 36.5 µM (inactive); in the experiment on TK-10, > 100 µM (inactive); in the experiment with U-251, 64.3 µM (inactive); in the experiment on UACC-62, 41 µM (inactive).
As for `COc1ccc2[nH]c3c(C)c4cc[n+](C)cc4c(C)c3c2c1`, the GI50 in the experiment on HL-60 was 14.9 µM (inactive); in the experiment on HOP-92, 2.27 µM (inactive); in the experiment with HT-29, 3.23 µM (inactive); with KM12, 0.964 µM (active); in the experiment on LOX IMVI it was 6.21 µM (inactive); with MCF7 it was 2.16 µM (inactive). Besides, the GI50 in the experiment with NCI-H226 is 0.232 µM (active); with SF-295, 0.173 µM (active); in the experiment with SK-MEL-5 it was 1.18 µM (inactive); with SN12C, 0.0834 µM (active); in the experiment on SNB-19 it was 0.16 µM (active); in the experiment on SNB-75 it was 0.121 µM (active). Moreover, the values for the GI50 with SW-620, in the experiment with U-251 and in the experiment on UACC-62 were 0.587 µM (active), 0.105 µM (active) and 2.16 µM (inactive), respectively.
